Experimental data as given in US10292973B2, “Covalent irreversible inhibitors of USP7 as anti-cancer agents” (PROGENRA, INC., priority 2015, dated 2019).
Entries after “also recorded” stand apart in the source; their conditions may differ.

What was measured:
[1] = target: T1, USP7core WT (Homo sapiens, UniProt Q93009); assay: Covalent adduct formation with purified USP7core WT by LC-MS; type: binding; conditions: 5 μM USP7core WT, 100 μM compound, room temperature, 4 h
T1 construct: 5 μM purified USP7core WT or active site cysteine mutant C223A were incubated
T1 sequence (Q93009 214-521 limits assumed): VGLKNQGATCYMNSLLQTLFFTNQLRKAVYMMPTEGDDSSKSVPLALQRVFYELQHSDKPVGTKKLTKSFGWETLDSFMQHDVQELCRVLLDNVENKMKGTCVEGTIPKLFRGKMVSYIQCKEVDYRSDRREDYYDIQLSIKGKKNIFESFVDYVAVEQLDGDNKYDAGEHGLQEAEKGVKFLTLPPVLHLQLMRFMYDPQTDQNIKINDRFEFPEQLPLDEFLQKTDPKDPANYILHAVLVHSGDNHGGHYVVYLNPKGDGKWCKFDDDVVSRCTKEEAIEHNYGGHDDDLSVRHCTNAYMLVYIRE
Method: (§1) FIG. 4 provides data showing an example of the covalent irreversible nature of disclosed USP7 inhibitors. 5 μM purified USP7core WT or active site cysteine mutant C223A were incubated with 100 μM Compound 5 or DMSO at room temperature for 4 hrs, and then the protein/compound reaction products were mixed with equal volume of 0.1% Trifluoroacetic acid (TFA) before LC-MS injection. The samples were analyzed by reverse-phase liquid chromatography coupled to UV and MS detection (Agilent, 6220 Accurate-Mass Time-of-Flight (TOF) LC/MS). […] 5μM purified USP7core WT or C223A were incubated with 100 μM of an exemplary compound of the present invention (for example, Compound 5) or DMSO at room temperature for 4 h, and then the protein/compound reaction products were mixed with equal volume of 0.1% Trifluoroacetic acid (TFA). The samples were analyzed by reverse-phase liquid chromatography coupled to UV and MS detection (Agilent, 6220 Accurate-Mass Time-of-Flight (TOF) LC/MS).

[2] = target: T2, USP7 (Homo sapiens, UniProt Q93009); assay: DUB activity of USP7 immunoprecipitated from treated Jurkat cells (Ub-EKL assay), pulse treatment and washout; type: cell-based; conditions: washed; for USP7 catalytic activity returned: Jurkat cells exposed 2 hours, immunoprecipitated USP7
T2 construct: USP7 was immuno-precipitated from lysates and USP7 activity measured; endogenous in cells; host or cells: Jurkat cells
T2 sequence (Q93009 whole entry): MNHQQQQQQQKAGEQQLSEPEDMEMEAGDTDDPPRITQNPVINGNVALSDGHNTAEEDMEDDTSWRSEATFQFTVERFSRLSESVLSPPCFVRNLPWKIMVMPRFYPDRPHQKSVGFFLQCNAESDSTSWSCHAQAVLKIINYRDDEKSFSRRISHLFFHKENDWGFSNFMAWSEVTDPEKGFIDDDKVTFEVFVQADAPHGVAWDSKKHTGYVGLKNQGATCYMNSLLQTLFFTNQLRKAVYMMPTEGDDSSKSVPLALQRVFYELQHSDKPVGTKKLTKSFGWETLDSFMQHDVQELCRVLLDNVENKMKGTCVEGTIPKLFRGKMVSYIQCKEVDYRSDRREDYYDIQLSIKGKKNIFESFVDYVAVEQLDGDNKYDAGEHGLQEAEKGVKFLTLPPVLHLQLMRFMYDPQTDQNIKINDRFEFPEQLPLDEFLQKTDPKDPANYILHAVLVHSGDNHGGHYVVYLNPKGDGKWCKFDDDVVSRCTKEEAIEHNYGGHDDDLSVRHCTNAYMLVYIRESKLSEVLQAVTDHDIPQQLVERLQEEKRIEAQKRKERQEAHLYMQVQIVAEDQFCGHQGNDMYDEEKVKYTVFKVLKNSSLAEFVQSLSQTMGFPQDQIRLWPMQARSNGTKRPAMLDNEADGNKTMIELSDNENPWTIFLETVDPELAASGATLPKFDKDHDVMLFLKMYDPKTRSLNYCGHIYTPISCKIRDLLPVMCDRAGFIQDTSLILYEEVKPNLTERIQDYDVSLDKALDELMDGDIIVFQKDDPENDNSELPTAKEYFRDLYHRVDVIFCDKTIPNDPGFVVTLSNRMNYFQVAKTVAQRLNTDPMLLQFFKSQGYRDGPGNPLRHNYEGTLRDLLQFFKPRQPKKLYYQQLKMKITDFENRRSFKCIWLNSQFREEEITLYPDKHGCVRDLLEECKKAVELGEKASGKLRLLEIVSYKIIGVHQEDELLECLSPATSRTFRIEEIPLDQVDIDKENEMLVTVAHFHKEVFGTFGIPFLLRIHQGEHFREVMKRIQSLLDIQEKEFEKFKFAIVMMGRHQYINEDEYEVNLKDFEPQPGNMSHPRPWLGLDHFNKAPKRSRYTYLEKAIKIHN
Method: FIG. 5A-FIG. 5C graphically illustrate examples of the disclosed USP7 inhibitors of the invention that are irreversible inhibitors. Jurkat cells were treated with 10 μM USP7i for indicated time period (FIG. 5A) or pulse treated for 2 h with 10 μM compound 5 (FIG. 5B), washed and incubated for the indicated time period followed by DUB activity measurement of immunoprecipitated USP7 as well as total cell lysate (FIG. 5C) using Ub-EKL assay as described previously (U.S. Pat. No. 8,680,139). A portion of the immunoprecipitated USP7 is separated on 10% SDS-PAGE and immunoblotted with anti-USP7 antibody to detect the level of USP7 protein (shown at the top of graphs in FIG. 5A and FIG. 5B). […] Jurkat cells were exposed to compound 5 for 2 hours and the compounds were washed away followed by incubation for various time points. Cells were harvested, lysed and their USP7 immunoprecipitated and washed with buffer. […] Jurkat cells were incubated with an exemplary compound of the present invention (e.g., compound 5), washed, and incubated for an additional 0-96 h. USP7 was immuno-precipitated from lysates and USP7 activity measured. […] Total cell deubiquitinase activity can be performed to determine selectivity of these compounds (FIG. 5C). These experiments delineate a simple, powerful biomarker for determining the dose-efficacy relationship in the pre-clinical/clinical evaluation of irreversible USP7 inhibitors. Inhibitors were also tested in cells for effects on various PD markers, including three major USP7 substrates, DNMT1, UHRF1 and HDM2 .

[3] = target: USP7core C223A (Homo sapiens, UniProt Q93009, C223A); assay: Covalent adduct formation with active site cysteine mutant USP7core C223A by LC-MS; type: binding; conditions: 5 μM USP7core C223A, 100 μM compound, room temperature, 4 h
Chain of USP7core C223A (Q93009 214-521 C223A limits assumed): as the sequence (Q93009 214-521 limits assumed) above, with C10A counted along it
Method: as §1

[4] = system: DNMT1, UHRF1 and HDM2; assay: Immunoblot of USP7 substrates DNMT1, UHRF1 and HDM2 in Jurkat cells; type: cell-based; conditions: 24 h treatment, immunoblot (FIG. 6)
Method: FIG. 6 graphically illustrates a decrease in USP7 oncogenic substrates DNMT1, UHRF1 and HDM2 levels in Jurkat cells treated with the USP7i compound 5. 20 μg total cell lysates from each samples were separated on 10% SDS-PAGE and immunoblotted with antibodies against DNMT1, UHRF1, HDM2 and Actin (loading control).
Jurkat cells were incubated with an exemplary compound of the present invention (e.g., compound 5), washed, and incubated for an additional 0-96 h. USP7 was immuno-precipitated from lysates and USP7 activity measured. […] Total cell deubiquitinase activity can be performed to determine selectivity of these compounds (FIG. 5C). These experiments delineate a simple, powerful biomarker for determining the dose-efficacy relationship in the pre-clinical/clinical evaluation of irreversible USP7 inhibitors. Inhibitors were also tested in cells for effects on various PD markers, including three major USP7 substrates, DNMT1, UHRF1 and HDM2 .

[5] = pooled analysis of 14 phase I-III studies, various doses; cited from earlier work

| USP7 catalytic activity returned ([2]; 48 hours after washout) | USP7 catalytic activity returned ([2]; 72 hours after washout) | Molecule | covalent adduct formation with wild type USP7 core [1] | inhibition of USP7 activity after pulse treatment ([2]; Jurkat cells, 10 μM for 2 h, up to 72 h (FIG. 5B)) | covalent adduct formation with active site mutant USP7 core C223A [3] | DNMT1 level [4] | HDM2 level [4] | UHRF1 level [4] | patients who experienced immune-related adverse effects [5] |
| --- | --- | --- | --- | --- | --- | --- | --- | --- | --- |
| about 55% | 68% | CS(=O)(=O)c1cccc(NC(=O)c2cc([N+](=O)[O-])c(Sc3c(Cl)cncc3Cl)s2)c1 [compound 5, 5-[(3,5-dichloropyridin-4-yl)sulfanyl]-N-[3-(methylsulfonyl)phenyl]-4-nitrothiophene-2-carboxamide] | covalent irreversible adduct formation; also recorded: formed a covalent adduct | prolonged inhibition of USP7 activity, even after 72 h | not in the active site cysteine mutant enzyme; also recorded: failed to form an adduct | decrease | decrease | decrease | – |
| – | – | ipilimumab | – | – | – | – | – | – | 64% |
